From patent publication US12216122B2, “Compositions and methods relating to detection, inhibition, and imaging of indoleamine 2,3-dioxygenase 1 (IDO1)” (Regeneron Pharmaceuticals, Inc., priority 2019, dated 2025)
Like-named read-outs stand apart in the source and are kept apart here. Each block holds one molecule with its values, some of them ahead of it. Numbered stars: 1 amine (or outer) side, 2 acyl side, 3 side chain; on linkers, the order of the positions; unused ones are H or OH. Bridge positions count the residues as written; N and C are the ends. Square brackets hold non-standard residues; d marks the D form. Triazole bridges read from a SMILES are 1,4-linked. Peptide text beside a SMILES is read from it. * marks the point of attachment. ξ: configuration not given here. NH(CH2CH2O)5CH2CO = O=C(COCCOCCOCCOCCOCCN[*:1])[*:2]; Biotinyl(4ξ) = O=C1N[C@H]2CSC(CCCCC(=O)*)[C@H]2N1; NMeLys(N3) = CN[C@@H](CCCCN=[N+]=[N-])C(=O)O; X1 = O=C(CSc1nonc1/C(=N/O)Nc1ccc(F)c(Br)c1)*; Trp(1-Me) = Cn1cc(C[C@H](N)C(=O)O)c2ccccc21; X5 = O=C1N[C@@H]2CSC(CCCCC(=O)*)[C@@H]2N1; PEG8 = NCCOCCOCCOCCOCCOCCOCCOCCOCCC(=O)O; Lys(N3) = [N-]=[N+]=NCCCC[C@H](N)C(=O)O; Phe(4-F) = N[C@@H](Cc1ccc(F)cc1)C(=O)O; PEG6 = NCCOCCOCCOCCOCCOCCOCCC(=O)O; dNMeV = CN[C@@H](C(=O)O)C(C)C; PEG4 = NCCOCCOCCOCCOCCC(=O)O; AEEEA = NCCOCCOCCOCC(=O)O; Pra = C#CC[C@H](N)C(=O)O

What was measured:
recombinant human IDO1 = biological target: T1, recombinant human IDO1 (Homo sapiens, UniProt P14902); assay: IDO1 Fluorogenic Inhibitor Screening Assay (enzyme inhibition); assay type: biochemical
T1 construct: purchased BPS Biosciences 72037
T1 sequence (P14902 whole entry): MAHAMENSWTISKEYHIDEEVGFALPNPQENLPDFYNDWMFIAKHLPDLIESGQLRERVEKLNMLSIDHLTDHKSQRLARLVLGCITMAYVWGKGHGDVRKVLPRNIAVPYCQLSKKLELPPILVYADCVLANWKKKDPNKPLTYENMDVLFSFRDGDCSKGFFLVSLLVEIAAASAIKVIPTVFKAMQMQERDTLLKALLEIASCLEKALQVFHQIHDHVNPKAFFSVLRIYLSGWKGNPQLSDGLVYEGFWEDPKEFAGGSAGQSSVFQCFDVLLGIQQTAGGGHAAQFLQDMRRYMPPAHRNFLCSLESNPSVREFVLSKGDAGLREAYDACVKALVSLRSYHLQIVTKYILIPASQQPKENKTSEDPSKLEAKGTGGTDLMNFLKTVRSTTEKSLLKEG
Protocol: The IDO1 Fluorogenic Inhibitor Screening Assay Kit (72037, BPS Biosciences) was used to measure the enzyme inhibition of human IDO1 in the presence of macrocyclic peptide ligands. IDO1 catalyzes the conversion of the essential amino acid L-tryptophan (L-Trp) to N-formylkynurenine (NFK). In the assay, the test inhibitor and enzyme were added to a sample containing L-Trp substrate. After incubation for 1 h at room temperature, 20 μL Fluorescence Solution was added and incubated at 37° C. for 4 h to produce a fluorescent product. Activity was measured by reading sample fluorescence at λ=510 nm following excitation of the reaction product at λ=400 nm.

[1] = biological target: T2, His-tagged IDO1 human recombinant protein (Homo sapiens, UniProt P14902); assay: IDO1 ELISA (Affinity Assay): sandwich ELISA, biotinylated ligand immobilized on NEUTRAVIDIN plate; assay type: binding
T2 construct: purchased BPS Biosciences 71182
T2 sequence (P14902 whole entry): as above
Protocol: Protocol: A black 96-well NEUTRAVIDIN® Coated High Binding Capacity plate (15510, Pierce) was coated with 2 μM biotinylated macrocyclic peptide ligand in TBS (25 mM Tris-HCl, 150 mM NaCl, pH 7.6) for 2 h at room temperature. The plate was aspirated and then washed with Wash Buffer (0.05% (v/v) TWEEN® 20 in PBS, 6×). His-tagged IDO1 human recombinant protein (71182, BPS Biosciences) was serially diluted in Wash Buffer (from 200 to 0 nM) and incubated in the designated microwells for 1 h at room temperature. Microwells were aspirated and subsequently washed with Wash Buffer (11×). To detect the bound IDO1 protein, Alkaline Phosphatase (AP)-conjugated Anti-6×HIS TAG® antibody [HIS-1] (ab49746, Abcam) was prepared at 1:10,000 dilution and added to the microwells for 1 h at room temperature. The plate was aspirated and washed with Wash Buffer (5×). ATTOPHOS® AP Fluorescent Substrate System (S1000, Promega) was employed to develop the microwells. Using an excitation wavelength of 430 nm, fluorescent emission at 535 nm was recorded by Beckman Coulter DTX880 photometer. Titration curves were fit using a four-parameter regression curve fitting program to determine EC50 values.
For these assays, a dilution series of His-tagged IDO1 human recombinant protein was captured using the macrocyclic peptide ligands immobilized on a NEUTRAVIDIN®-coated plate. […] The sequences of the peptide ligands are listed in Table 1, where D-amino acids are denoted in lowercase, Me-Trp=1-methyl-L-tryptophan, and F-Phe=4-fluoro-L-phenylalanine. Chemical structures are shown below Table 1.
The D-alanine substituted, biotin-PEG3-modified macrocycles were tested in the IDO1 ELISA (Affinity assay). For these assays, a dilution series of His-tagged IDO1 human recombinant protein was captured using macrocycles immobilized on a NEUTRAVIDIN®-coated plate.

[2] = N-methylated heterobiligands, PEG6 linker, read-out: IC50
[3] = Table 15, read-out: Inhibition Recombinant IDO1 IC50

SMILES: CC(C)[C@H]1NC(=O)[C@@H](Cc2ccc(O)cc2)NC(=O)[C@@H](Cc2c[nH]c3ccccc23)NC(=O)[C@@H](NC(=O)CNC(=O)CNC(=O)CSc2nonc2/C(=N/O)Nc2ccc(F)c(Br)c2)Cc2cn(nn2)CCCC[C@@H](C(N)=O)NC(=O)[C@@H](Cc2ccc(O)cc2)NC(=O)[C@@H](C)NC1=O [Deprotected-Inh-Gly2-wyvay] (X1-GG[Pra][dW][dY][dV][dA][dY][Lys(N3)]-NH2; triazole 3-9)
IDO1 inhibition potency relative to the small molecule (Inh) alone, in words (recombinant human IDO1): less active than the small molecule alone

SMILES: N=C(N)NCCC[C@H]1NC(=O)[C@@H](Cc2ccc(O)cc2)NC(=O)[C@@H](Cc2c[nH]c3ccccc23)NC(=O)[C@@H](NC(=O)CCOCCOCCOCCOCCNC(=O)CSc2nonc2/C(=N/O)Nc2ccc(F)c(Br)c2)Cc2cn(nn2)CCCC[C@@H](C(N)=O)NC(=O)[C@@H](Cc2ccc(O)cc2)NC1=O [Inh-PEG4-wyry] ({X1-PEG4}-[Pra][dW][dY][dR][dY][Lys(N3)]-NH2; triazole 1-6)
IDO1 inhibition potency relative to the small molecule (Inh) alone, in words (recombinant human IDO1): equal in potency

SMILES: CC(C)[C@H]1NC(=O)[C@@H](Cc2ccc(O)cc2)NC(=O)[C@@H](Cc2c[nH]c3ccccc23)NC(=O)[C@@H](NC(=O)COCCOCCOCCOCCOCCNC(=O)CSc2nonc2/C(=N/O)Nc2ccc(F)c(Br)c2)Cc2cn(nn2)CCCC[C@@H](C(N)=O)NC(=O)[C@@H](Cc2ccc(O)cc2)NC(=O)[C@@H](C)NC1=O [Inh-PEG5-wyvay] (X1-[NH(CH2CH2O)5CH2CO][Pra][dW][dY][dV][dA][dY][Lys(N3)]-NH2; triazole 2-8)
IDO1 inhibition potency relative to the small molecule (Inh) alone, in words (recombinant human IDO1): less active than the small molecule alone

IC50 (recombinant human IDO1; [2]): 1460 nM
IC50 (recombinant human IDO1; [3]): 1460 nM
SMILES: CC(C)[C@@H]1C(=O)N[C@H](C)C(=O)N[C@H](Cc2ccc(O)cc2)C(=O)N[C@H](C(N)=O)CCCCn2cc(nn2)C[C@H](NC(=O)CCOCCOCCOCCOCCOCCOCCNC(=O)CSc2nonc2/C(=N/O)Nc2ccc(F)c(Br)c2)C(=O)N[C@H](Cc2c[nH]c3ccccc23)C(=O)N[C@H](Cc2ccc(O)cc2)C(=O)N1C [Inh-PEG6-wy(N-Me-v)ay] ({X1-PEG6}-[Pra][dW][dY][dNMeV][dA][dY][Lys(N3)]-NH2; triazole 1-7)

IC50 (recombinant human IDO1; [2]): 622 nM
IC50 (recombinant human IDO1; [3]): 622 nM
SMILES: CC(C)[C@H]1NC(=O)[C@@H](Cc2ccc(O)cc2)NC(=O)[C@@H](Cc2c[nH]c3ccccc23)NC(=O)[C@@H](NC(=O)CCOCCOCCOCCOCCOCCOCCNC(=O)CSc2nonc2/C(=N/O)Nc2ccc(F)c(Br)c2)Cc2cn(nn2)CCCC[C@@H](C(N)=O)N(C)C(=O)[C@@H](Cc2ccc(O)cc2)NC(=O)[C@@H](C)NC1=O [Inh-PEG6-wyvay(N-Me)] ({X1-PEG6}-[Pra][dW][dY][dV][dA][dY][NMeLys(N3)]-NH2; triazole 1-7)

SMILES: N=C(N)NCCC[C@H]1NC(=O)[C@@H](Cc2ccc(O)cc2)NC(=O)[C@@H](Cc2c[nH]c3ccccc23)NC(=O)[C@@H](NC(=O)CCOCCOCCOCCOCCOCCOCCOCCOCCNC(=O)CSc2nonc2/C(=N/O)Nc2ccc(F)c(Br)c2)Cc2cn(nn2)CCCC[C@@H](C(N)=O)NC(=O)[C@@H](Cc2ccc(O)cc2)NC1=O [Inh-PEG8-wyry] ({X1-PEG8}-[Pra][dW][dY][dR][dY][Lys(N3)]-NH2; triazole 1-6)
IDO1 inhibition potency relative to the small molecule (Inh) alone, in words (recombinant human IDO1): significantly less potent than Inh alone

SMILES: C[C@H]1NC(=O)[C@@H](Cc2ccccc2)NC(=O)[C@@H](CCCNC(=N)N)NC(=O)[C@@H](Cc2ccccc2)NC(=O)[C@@H](NC(=O)COCCOCCOCCNC(=O)CCCCC2SC[C@@H]3NC(=O)N[C@H]23)Cc2cn(nn2)CCCC[C@@H](C(N)=O)NC(=O)[C@@H](CO)NC1=O (stereo partly shown) [frfas, Biotin-PEG3-Cy(frfas)] ({Biotinyl(4ξ)-AEEEA}-[Pra][dF][dR][dF][dA][dS][Lys(N3)]-NH2; triazole 1-7)
Binding to human IDO1 by ELISA, in words [1]: weakest binding to IDO1

SMILES: CC(C)C[C@H]1NC(=O)[C@@H](NC(=O)COCCOCCOCCNC(=O)CCCCC2SC[C@H]3NC(=O)N[C@@H]23)Cc2cn(nn2)CCCC[C@@H](C(N)=O)NC(=O)[C@H](Cc2ccc(F)cc2)NC(=O)[C@H](Cc2cn(C)c3ccccc23)NC(=O)[C@@H](Cc2ccccc2)NC1=O (stereo partly drawn) [lf(Me-Trp)(F-Phe), Biotin-PEG3-Cy(lf(Me-Trp)(F-Phe))] ({X5-AEEEA}-[Pra][dL][dF][Trp(1-Me)][Phe(4-F)][Lys(N3)]-NH2; triazole 1-6)
Binding to human IDO1 by ELISA, in words [1]: slight decrease in binding affinity
